Data as given in patent publication US11904020B2, “Bicyclic peptide ligands specific for TREM2” (Bicycle Tx Limited, priority 2021, dated 2024).
*1 amine or outer side, *2 acyl side, *3 side chain or, on linkers, in order; H or OH if unused. Where a SMILES comes first, the peptide text is derived from it. Bridges are numbered along the chain shown (N, C = ends). [ ]: non-standard residue; d: D form. TATA = O=C(CC[*:1])N1CN(C(=O)CC[*:2])CN(C(=O)CC[*:3])C1; Phe(2-Me) = Cc1ccccc1C[C@H](N)C(=O)O

The compounds below were run against TREM2 extracellular domain (ECD) (residues 19-131, C-terminally biotinylated, deglycosylated or glycosylated) (Homo sapiens, UniProt Q9NZC2) (assay: biochemical). Conditions: Human BLI (Kd; nM) (deglycosylated), Table 4A; deglycosylated human TREM2 ECD; steady-state KD, 25° C.
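Further: Bio-layer interferometry in 50 mM HEPES pH 7.5 with 150 mM NaCl and 0.1% Tween, double-referenced with blank wells and unrelated-protein sensors, equilibrium response fitted versus concentration.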
Protocol: Bio-layer interferometry was performed on an Octet RED384® system (Sartorius) at 25° C. in a buffer containing 50 mM HEPES (pH 7.5), 150 mM NaCl and 0.1% Tween. TREM2 extracellular domain (ECD) (residues 19-131, C-terminally biotinylated, deglycosylated or glycosylated) was loaded onto Superstreptavidin biosensors (SSA, 18-5070, Sartorius) at 0.0125 mg/ml for 300 s. Bicycle peptides (10 mM in DMSO) were dispensed into 384-Well Tilted-Bottom Plates (18-5076, Sartorius) using an Echo liquid handler giving a final DMSO concentration of 0.125% in all wells including control wells. Association of defined concentrations of bicyclic peptide (0-12.5 μM, 1:2 dilutions for 7 points) was recorded over 120 s followed by dissociation in buffer over 120 s. Reference wells containing no bicycle peptides and reference sensors loaded with an unrelated protein (His-tagged MLLT3a) were subjected to the same assay protocol and double reference subtraction was used for processing to account for non-specific binding. Traces were analysed using Octet Software (Version 11.0). Association and dissociation curves were globally fit and the response at equilibrium (Req) plotted against concentration to obtain steady-state KD values.

TREM2 extracellular domain (ECD) (residues 19-131, C-terminally biotinylated, deglycosylated or glycosylated), sequence (Q9NZC2 19-131): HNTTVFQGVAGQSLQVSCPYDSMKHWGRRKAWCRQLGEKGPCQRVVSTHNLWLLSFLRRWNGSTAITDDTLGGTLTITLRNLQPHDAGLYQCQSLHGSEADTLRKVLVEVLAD

Structure (SMILES)	Kd
C[C@H](N)C(=O)N[C@H]1CSCCC(=O)N2CN3CN(C2)C(=O)CCSC[C@H](NC(=O)[C@H](Cc2ccc(O)cc2)NC(=O)[C@H](CC(N)=O)NC(=O)[C@H]([C@@H](C)O)NC1=O)C(=O)N[C@@H](Cc1ccccc1)C(=O)N[C@@H](Cc1c[nH]c2ccccc12)C(=O)N1CCC[C@H]1C(=O)N[C@@H](Cc1ccccc1)C(=O)N[C@@H](CCC(N)=O)C(=O)N[C@@H](CO)C(=O)N[C@H](C(=O)N[C@@H](C)C(N)=O)CSCCC3=O [BCY19780, A-(SEQ ID NO: 19)-A] (H-ACTNYCFWPFQSCA-NH2; linker 2-6-13 via TATA)	2400 nM
C[C@H](N)C(=O)N[C@H]1CSCCC(=O)N2CN3CN(C2)C(=O)CCSC[C@H](NC(=O)[C@H](Cc2ccc(O)cc2)NC(=O)[C@H](Cc2ccc(O)cc2)NC(=O)[C@H](CO)NC1=O)C(=O)N[C@@H](Cc1ccccc1)C(=O)N[C@@H](Cc1c[nH]c2ccccc12)C(=O)N1CCC[C@H]1C(=O)N[C@@H](Cc1ccccc1)C(=O)N[C@@H](CCC(N)=O)C(=O)N[C@@H](CO)C(=O)N[C@H](C(=O)N[C@@H](C)C(N)=O)CSCCC3=O [BCY19766, A-(SEQ ID NO: 8)-A] (H-ACSYYCFWPFQSCA-NH2; linker 2-6-13 via TATA; C-terminus assumed)	1000 nM
CC(=O)N[C@@H](C)C(=O)N[C@H]1CSCCC(=O)N2CN3CN(C2)C(=O)CCSC[C@H](NC(=O)[C@H](Cc2ccc(O)cc2)NC(=O)[C@H](CCC(=O)O)NC(=O)[C@H](CO)NC1=O)C(=O)N[C@@H](Cc1ccccc1)C(=O)N[C@@H](Cc1c[nH]c2ccccc12)C(=O)N1CCC[C@H]1C(=O)N[C@@H](Cc1ccccc1)C(=O)N[C@@H](Cc1ccc(O)cc1)C(=O)N[C@@H](Cc1c[nH]cn1)C(=O)N[C@H](C(=O)N[C@@H](C)C(N)=O)CSCCC3=O [BCY18218, Ac-A-(SEQ ID NO: 1)-A] (Ac-ACSEYCFWPFYHCA-NH2; linker 2-6-13 via TATA)	2000 nM
CC(=O)N[C@H]1CSCCC(=O)N2CN3CN(C2)C(=O)CCSC[C@H](NC(=O)[C@H](Cc2ccc(O)cc2)NC(=O)[C@H](CCC(=O)O)NC(=O)[C@H](CO)NC1=O)C(=O)N[C@@H](Cc1ccccc1)C(=O)N[C@@H](Cc1c[nH]c2ccccc12)C(=O)N1CCC[C@H]1C(=O)N[C@@H](Cc1ccccc1)C(=O)N[C@@H](Cc1ccc(O)cc1)C(=O)N[C@@H](Cc1c[nH]cn1)C(=O)N[C@H](C(N)=O)CSCCC3=O [BCY18217, Ac-(SEQ ID NO: 1)]	900 nM
C[C@H](N)C(=O)N[C@H]1CSCCC(=O)N2CN3CN(C2)C(=O)CCSC[C@H](NC(=O)[C@H](Cc2ccc(O)cc2)NC(=O)[C@H](CO)NC(=O)[C@H]([C@@H](C)O)NC1=O)C(=O)N[C@@H](Cc1ccccc1)C(=O)N[C@@H](Cc1c[nH]c2ccccc12)C(=O)N1CCC[C@H]1C(=O)N[C@@H](Cc1ccccc1)C(=O)N[C@@H](Cc1ccc(O)cc1)C(=O)N[C@@H](CCC(N)=O)C(=O)N[C@H](C(=O)N[C@@H](C)C(N)=O)CSCCC3=O [BCY19768, A-(SEQ ID NO: 10)-A] (H-ACTSYCFWPFYQCA-NH2; linker 2-6-13 via TATA; N-terminus and C-terminus assumed)	900 nM
NC(=O)[C@@H]1CSCCC(=O)N2CN3CN(C2)C(=O)CCSC[C@H](N)C(=O)N[C@@H](CO)C(=O)N[C@@H](CCC(=O)O)C(=O)N[C@@H](Cc2ccc(O)cc2)C(=O)N[C@@H](CSCCC3=O)C(=O)N[C@@H](Cc2ccccc2)C(=O)N[C@@H](Cc2c[nH]c3ccccc23)C(=O)N2CCC[C@H]2C(=O)N[C@@H](Cc2ccccc2)C(=O)N[C@@H](Cc2ccc(O)cc2)C(=O)N[C@@H](Cc2c[nH]cn2)C(=O)N1 [BCY18219, SEQ ID NO: 1]	700 nM

Same assay, conditions: Human BLI (Kd; nM) (deglycosylated), Table 4B; deglycosylated human TREM2 ECD; steady-state KD, 25° C.

Structure (SMILES)	Kd
CC(=O)N[C@H]1CSCCC(=O)N2CN3CN(C2)C(=O)CCSC[C@H](NC(=O)[C@H](Cc2ccc(O)cc2)NC(=O)[C@H](CCC(=O)O)NC(=O)[C@H](CO)NC1=O)C(=O)N[C@@H](Cc1ccccc1)C(=O)N[C@@H](Cc1c[nH]c2ccccc12)C(=O)N1CC[C@H]1C(=O)N[C@@H](Cc1ccccc1)C(=O)N[C@@H](Cc1ccc(O)cc1)C(=O)N[C@@H](Cc1c[nH]cn1)C(=O)N[C@H](C(N)=O)CSCCC3=O [BCY20068, Ac-(SEQ ID NO: 64)]	2540 nM
CC(=O)N[C@H]1CSCCC(=O)N2CN3CN(C2)C(=O)CCSC[C@H](NC(=O)[C@H](Cc2ccc(O)cc2)NC(=O)[C@@H](C)NC(=O)[C@H](CO)NC1=O)C(=O)N[C@@H](Cc1ccccc1)C(=O)N[C@@H](Cc1c[nH]c2ccccc12)C(=O)N1CCC[C@H]1C(=O)N[C@@H](Cc1ccccc1)C(=O)N[C@@H](Cc1ccc(O)cc1)C(=O)N[C@@H](Cc1c[nH]cn1)C(=O)N[C@H](C(N)=O)CSCCC3=O [BCY20087, Ac-(SEQ ID NO: 80)]	18000 nM
CC(=O)N[C@H]1CSCCC(=O)N2CN3CN(C2)C(=O)CCSC[C@H](NC(=O)[C@H](Cc2ccc(O)cc2)NC(=O)[C@H](CCC(=O)O)NC(=O)[C@H](CO)NC1=O)C(=O)N[C@@H](Cc1ccccc1)C(=O)N[C@@H](Cc1ccccc1C)C(=O)N1CCC[C@H]1C(=O)N[C@@H](Cc1ccccc1)C(=O)N[C@@H](Cc1ccc(O)cc1)C(=O)N[C@@H](Cc1c[nH]cn1)C(=O)N[C@H](C(N)=O)CSCCC3=O [BCY20063, Ac-(SEQ ID NO: 61)] (Ac-CSEYCF[Phe(2-Me)]PFYHC-NH2; linker 1-5-12 via TATA)	1300 nM
CC(=O)N[C@H]1CSCCC(=O)N2CN3CN(C2)C(=O)CCSC[C@H](NC(=O)[C@H](Cc2ccc(O)cc2)NC(=O)[C@H](CCC(=O)O)NC(=O)[C@H](CO)NC1=O)C(=O)N[C@@H](Cc1ccccc1F)C(=O)N[C@@H](Cc1c[nH]c2ccccc12)C(=O)N1CCC[C@H]1C(=O)N[C@@H](Cc1ccccc1)C(=O)N[C@@H](Cc1ccc(O)cc1)C(=O)N[C@@H](Cc1c[nH]cn1)C(=O)N[C@H](C(N)=O)CSCCC3=O [BCY20051, Ac-(SEQ ID NO: 51)]	2030 nM
CC(=O)N[C@H]1CSCCC(=O)N2CN3CN(C2)C(=O)CCSC[C@H](NC(=O)[C@H](Cc2ccc(O)cc2)NC(=O)[C@H](CCC(=O)O)NC(=O)[C@@H](C)NC1=O)C(=O)N[C@@H](Cc1ccccc1)C(=O)N[C@@H](Cc1c[nH]c2ccccc12)C(=O)N1CCC[C@H]1C(=O)N[C@@H](Cc1ccccc1)C(=O)N[C@@H](Cc1ccc(O)cc1)C(=O)N[C@@H](Cc1c[nH]cn1)C(=O)N[C@H](C(N)=O)CSCCC3=O [BCY20086, Ac-(SEQ ID NO: 79)]	17900 nM
CC(=O)N[C@H]1CSCCC(=O)N2CN3CN(C2)C(=O)CCSC[C@H](NC(=O)[C@H](Cc2ccc(O)cc2)NC(=O)[C@H](CCC(=O)O)NC(=O)[C@H](CO)NC1=O)C(=O)N[C@@H](Cc1ccccc1)C(=O)N[C@@H](Cc1c[nH]c2ccccc12)C(=O)N1CCCC[C@H]1C(=O)N[C@@H](Cc1ccccc1)C(=O)N[C@@H](Cc1ccc(O)cc1)C(=O)N[C@@H](Cc1c[nH]cn1)C(=O)N[C@H](C(N)=O)CSCCC3=O [BCY20069, Ac-(SEQ ID NO: 62)]	1460 nM
CC(=O)N[C@H]1CSCCC(=O)N2CN3CN(C2)C(=O)CCSC[C@H](NC(=O)[C@H](Cc2ccc(O)cc2)NC(=O)[C@H](CCC(=O)O)NC(=O)[C@H](CO)NC1=O)C(=O)N[C@@H](Cc1ccccc1)C(=O)N[C@@H](Cc1c[nH]c2ccccc12)C(=O)N1CCC[C@H]1C(=O)N[C@@H](Cc1ccccc1)C(=O)N[C@@H](Cc1ccc(O)cc1)C(=O)N[C@@H](Cc1ccccc1)C(=O)N[C@H](C(N)=O)CSCCC3=O [BCY20576, Ac-(SEQ ID NO: 102)] (Ac-CSEYCFWPFYFC-NH2; linker 1-5-12 via TATA)	1350 nM
CC(=O)N[C@H]1CSCCC(=O)N2CN3CN(C2)C(=O)CCSC[C@H](NC(=O)[C@H](Cc2ccc(O)cc2)NC(=O)[C@H](CCC(=O)O)NC(=O)[C@H](CO)NC1=O)C(=O)N[C@@H](Cc1ccccc1)C(=O)N[C@@H](Cc1c[nH]c2ccccc12)C(=O)N1CCC[C@H]1C(=O)N[C@@H](Cc1ccccc1)C(=O)N[C@@H](Cc1ccc(O)cc1)C(=O)N[C@@H](CC(N)=O)C(=O)N[C@H](C(N)=O)CSCCC3=O [BCY20083, Ac-(SEQ ID NO: 78)] (Ac-CSEYCFWPFYNC-NH2; linker 1-5-12 via TATA)	1830 nM
